Reference: the ASAP Discovery antiviral challenge data (2025)

Columns and labels:
MERS-CoV Mpro = MERS-CoV Mpro (UniProt K9N7C7)
SARS-CoV-2 Mpro = SARS-CoV-2 Mpro (UniProt P0DTD1)

With `O=C(NCc1cccs1)[C@@H]1CN(C(=O)c2cccnc2)CCN1c1ccc(Cl)c(Cl)c1` the IC50 (MERS-CoV Mpro) was 57.5 µM and the IC50 (SARS-CoV-2 Mpro) was 0.123 µM.
